Measurements as given in paper PMC11868595, “Safety, pharmacokinetics and efficacy of HA121-28 in patients with advanced solid tumors and RET fusion-positive non-small-cell lung cancer: a multicenter, open-label, single-arm phase 1/2 trial” (Signal Transduction and Targeted Therapy, 2025).

Tested on: patients with RET fusion-positive NSCLC
Experiment: Phase 2 trial: adverse events (CTCAE)
Assay type: in vivo, human
Text: The phase 2 trial was still ongoing. It was a single-arm, multicenter, open-label, nonrandomized study to assess the efficacy and safety of HA121-28 in RET-fusion-positive NSCLC.
Patients aged 18–75 years (inclusive) who had unresectable locally advanced or metastatic NSCLC through histologically or cytologically examination were enrolled. Patients were also required to have documented RET fusions centrally examined by next-generation sequencing in certified laboratories but without other oncogenic alterations. Had progression on at least one previous line of standard treatment but have no previous use of other anti-RET inhibitors. The complete lists of inclusion and exclusion criteria of phase 1 and phase 2 are provided in both protocols (in Supplement).
In phase 1 trial, during the dose-escalation part, patients first administered HA121-28 in a single ascending dose under the fasted state, then followed up for seven days. Then, patients received ascending doses of HA121-28 (q.d.) on a 21-day on and 7-day off treatment scheme for a 28-day cycle. For patients deemed beneficial from the treatment by investigators, treatment could remain until disease progression, or they discontinued from the study. In the dose-expansion part of phase 1, as well as phase 2, patients received HA121-28 (q.d.) at the selected doses on a 21-day on and 7-day off treatment scheme until disease progression, or they discontinued from the study.
Treatment-emergent adverse events (TEAEs) were documented during the entire study period. The predefined adverse event of special interest (AESI) was ≥ grade 3 prolonged QT interval. Tumor imaging was performed using contrast-enhanced computed tomography or magnetic resonance imaging at screening, Day 28 of the first cycle, then approximately every eight weeks till the end of the study for phase 1; in phase 2, imaging was scheduled at screening, and every eight weeks during the first 40 weeks, followed by every 12 weeks for the rest of the study period. RECIST 1.1 was used by the independent review committee or investigators for assessment of tumor response. After the original assessment, a repeated assessment was required around four weeks later to confirm a complete or partial response.
The primary endpoint of phase 2 was the independent review committee evaluated ORR using RECIST 1.1. The secondary endpoints included investigators assessed ORR; DCR, PFS, and DOR by the independent review committee and investigators; overall survival and TEAEs. Each TEAE was graded according to CTCAE version 5.0 and coded by MedDRA (version 24.0). The phase 2 trial is ongoing; not all endpoints are reported in this paper.

COc1cc2c(Nc3ccc(Br)cc3F)ncnc2cc1OCCCCN(C)C.Cl.Cl [HA121-28, N-(4-bromo-2-fluorophenyl)-7-(4-(dimethylamino)butoxy)-6-methoxy quinazolin-4-amine dihydrochloride]
TEAE, All: ALT increased (Phase 2 (N=48), 450 mg): 20 (41.7) count (percentage)
TEAE, All: AST increased (Phase 2 (N=48), 450 mg): 21 (43.8) count (percentage)
TEAE, All: Anemia (Phase 2 (N=48), 450 mg): 5 (10.4) count (percentage)
TEAE, All: Any (Phase 2 (N=48), 450 mg): 48 (100) count (percentage)
TEAE, All: Asthenia (Phase 2 (N=48), 450 mg): 7 (14.6) count (percentage)
TEAE, All: Blood ALP increased (Phase 2 (N=48), 450 mg): 5 (10.4) count (percentage)
TEAE, All: Blood creatinine increased (Phase 2 (N=48), 450 mg): 9 (18.8) count (percentage)
TEAE, All: COVID-19 (Phase 2 (N=48), 450 mg): 7 (14.6) count (percentage)
TEAE, All: Cough (Phase 2 (N=48), 450 mg): 6 (12.5) count (percentage)
TEAE, All: Decreased appetite (Phase 2 (N=48), 450 mg): 5 (10.4) count (percentage)
TEAE, All: Diarrhea (Phase 2 (N=48), 450 mg): 35 (72.9) count (percentage)
TEAE, All: Dizziness (Phase 2 (N=48), 450 mg): 3 (6.3) count (percentage)
TEAE, All: Electrocardiogram T wave abnormal (Phase 2 (N=48), 450 mg): 5 (10.4) count (percentage)
TEAE, All: Fecal occult blood positive (Phase 2 (N=48), 450 mg): 0 count (percentage)
TEAE, All: GGT increased (Phase 2 (N=48), 450 mg): 6 (12.5) count (percentage)
TEAE, All: Hypertension (Phase 2 (N=48), 450 mg): 11 (22.9) count (percentage)
TEAE, All: Hypertriglyceridemia (Phase 2 (N=48), 450 mg): 7 (14.6) count (percentage)
TEAE, All: Hypoalbuminemia (Phase 2 (N=48), 450 mg): 4 (8.3) count (percentage)
TEAE, All: Hypokalemia (Phase 2 (N=48), 450 mg): 11 (22.9) count (percentage)
TEAE, All: Hyponatremia (Phase 2 (N=48), 450 mg): 5 (10.4) count (percentage)
TEAE, All: Nausea (Phase 2 (N=48), 450 mg): 3 (6.3) count (percentage)
TEAE, All: Neutrophil counts decreased (Phase 2 (N=48), 450 mg): 7 (14.6) count (percentage)
TEAE, All: Platelet counts decreased (Phase 2 (N=48), 450 mg): 6 (12.5) count (percentage)
TEAE, All: Prolonged QT interval (Phase 2 (N=48), 450 mg): 21 (43.8) count (percentage)
TEAE, All: Proteinuria (Phase 2 (N=48), 450 mg): 16 (33.3) count (percentage)
TEAE, All: Rash (Phase 2 (N=48), 450 mg): 30 (62.5) count (percentage)
TEAE, All: Sinus tachycardia (Phase 2 (N=48), 450 mg): 5 (10.4) count (percentage)
TEAE, All: Urinary tract infection (Phase 2 (N=48), 450 mg): 5 (10.4) count (percentage)
TEAE, All: Vomiting (Phase 2 (N=48), 450 mg): 6 (12.5) count (percentage)
TEAE, All: Weight loss (Phase 2 (N=48), 450 mg): 5 (10.4) count (percentage)
TEAE, All: White blood cell counts decreased (Phase 2 (N=48), 450 mg): 8 (16.7) count (percentage)
TEAE, ≥ Grade 3: ALT increased (Phase 2 (N=48), 450 mg): 3 (6.3) count (percentage)
TEAE, ≥ Grade 3: AST increased (Phase 2 (N=48), 450 mg): 2 (4.2) count (percentage)
TEAE, ≥ Grade 3: Anemia (Phase 2 (N=48), 450 mg): 0 count (percentage)
TEAE, ≥ Grade 3: Any (Phase 2 (N=48), 450 mg): 35 (72.9) count (percentage)
TEAE, ≥ Grade 3: Asthenia (Phase 2 (N=48), 450 mg): 0 count (percentage)
TEAE, ≥ Grade 3: Blood ALP increased (Phase 2 (N=48), 450 mg): 0 count (percentage)
TEAE, ≥ Grade 3: Blood creatinine increased (Phase 2 (N=48), 450 mg): 0 count (percentage)
TEAE, ≥ Grade 3: COVID-19 (Phase 2 (N=48), 450 mg): 1 (2.1) count (percentage)
TEAE, ≥ Grade 3: Cough (Phase 2 (N=48), 450 mg): 0 count (percentage)
TEAE, ≥ Grade 3: Decreased appetite (Phase 2 (N=48), 450 mg): 1 (2.1) count (percentage)
TEAE, ≥ Grade 3: Diarrhea (Phase 2 (N=48), 450 mg): 6 (12.5) count (percentage)
TEAE, ≥ Grade 3: Dizziness (Phase 2 (N=48), 450 mg): 0 count (percentage)
TEAE, ≥ Grade 3: Electrocardiogram T wave abnormal (Phase 2 (N=48), 450 mg): 0 count (percentage)
TEAE, ≥ Grade 3: Fecal occult blood positive (Phase 2 (N=48), 450 mg): 0 count (percentage)
TEAE, ≥ Grade 3: GGT increased (Phase 2 (N=48), 450 mg): 0 count (percentage)
TEAE, ≥ Grade 3: Hypertension (Phase 2 (N=48), 450 mg): 9 (18.8) count (percentage)
TEAE, ≥ Grade 3: Hypertriglyceridemia (Phase 2 (N=48), 450 mg): 0 count (percentage)
TEAE, ≥ Grade 3: Hypoalbuminemia (Phase 2 (N=48), 450 mg): 0 count (percentage)
TEAE, ≥ Grade 3: Hypokalemia (Phase 2 (N=48), 450 mg): 3 (6.3) count (percentage)
TEAE, ≥ Grade 3: Hyponatremia (Phase 2 (N=48), 450 mg): 0 count (percentage)
TEAE, ≥ Grade 3: Nausea (Phase 2 (N=48), 450 mg): 0 count (percentage)
TEAE, ≥ Grade 3: Neutrophil counts decreased (Phase 2 (N=48), 450 mg): 2 (4.2) count (percentage)
TEAE, ≥ Grade 3: Platelet counts decreased (Phase 2 (N=48), 450 mg): 0 count (percentage)
TEAE, ≥ Grade 3: Prolonged QT interval (Phase 2 (N=48), 450 mg): 15 (31.3) count (percentage)
TEAE, ≥ Grade 3: Proteinuria (Phase 2 (N=48), 450 mg): 0 count (percentage)
TEAE, ≥ Grade 3: Rash (Phase 2 (N=48), 450 mg): 1 (2.1) count (percentage)
TEAE, ≥ Grade 3: Sinus tachycardia (Phase 2 (N=48), 450 mg): 0 count (percentage)
TEAE, ≥ Grade 3: Urinary tract infection (Phase 2 (N=48), 450 mg): 1 (2.1) count (percentage)
TEAE, ≥ Grade 3: Vomiting (Phase 2 (N=48), 450 mg): 0 count (percentage)
TEAE, ≥ Grade 3: Weight loss (Phase 2 (N=48), 450 mg): 0 count (percentage)
TEAE, ≥ Grade 3: White blood cell counts decreased (Phase 2 (N=48), 450 mg): 1 (2.1) count (percentage)
Serious TEAE: ALT increased (Phase 2, 450 mg (N=48)): 1 (2.1) No. (%)
Serious TEAE: AST increased (Phase 2, 450 mg (N=48)): 1 (2.1) No. (%)
Serious TEAE: Abdominal Pain (Phase 2, 450 mg (N=48)): 1 (2.1) No. (%)
Serious TEAE: Abdominal distension (Phase 2, 450 mg (N=48)): 1 (2.1) No. (%)
Serious TEAE: Acute cholecystitis (Phase 2, 450 mg (N=48)): 0 No. (%)
Serious TEAE: Acute pancreatitis (Phase 2, 450 mg (N=48)): 0 No. (%)
Serious TEAE: Anal abscess (Phase 2, 450 mg (N=48)): 0 No. (%)
Serious TEAE: Any (Phase 2, 450 mg (N=48)): 19 (39.6) No. (%)
Serious TEAE: Aortic intramural hematoma (Phase 2, 450 mg (N=48)): 0 No. (%)
Serious TEAE: Arrhythmia (Phase 2, 450 mg (N=48)): 0 No. (%)
Serious TEAE: Blood bilirubin increased (Phase 2, 450 mg (N=48)): 0 No. (%)
Serious TEAE: Blood creatinine increased (Phase 2, 450 mg (N=48)): 0 No. (%)
Serious TEAE: COVID-19 (Phase 2, 450 mg (N=48)): 1 (2.1) No. (%)
Serious TEAE: Cardiac tamponade (Phase 2, 450 mg (N=48)): 0 No. (%)
Serious TEAE: Coronary artery atherosclerosis (Phase 2, 450 mg (N=48)): 1 (2.1) No. (%)
Serious TEAE: Death (Phase 2, 450 mg (N=48)): 1 (2.1) No. (%)
Serious TEAE: Diarrhea (Phase 2, 450 mg (N=48)): 1 (2.1) No. (%)
Serious TEAE: Drug eruption (Phase 2, 450 mg (N=48)): 0 No. (%)
Serious TEAE: Dyspnea (Phase 2, 450 mg (N=48)): 1 (2.1) No. (%)
Serious TEAE: Embolism (Phase 2, 450 mg (N=48)): 1 (2.1) No. (%)
Serious TEAE: Erythema multiforme (Phase 2, 450 mg (N=48)): 1 (2.1) No. (%)
Serious TEAE: Headache (Phase 2, 450 mg (N=48)): 1 (2.1) No. (%)
Serious TEAE: Hemoptysis (Phase 2, 450 mg (N=48)): 0 No. (%)
Serious TEAE: Hydronephrosis (Phase 2, 450 mg (N=48)): 1 (2.1) No. (%)
Serious TEAE: Hypertension (Phase 2, 450 mg (N=48)): 2 (4.2) No. (%)
Serious TEAE: Hypoalbuminemia (Phase 2, 450 mg (N=48)): 0 No. (%)
Serious TEAE: Intestinal obstruction (Phase 2, 450 mg (N=48)): 0 No. (%)
Serious TEAE: Intra-abdominal fluid collection (Phase 2, 450 mg (N=48)): 1 (2.1) No. (%)
Serious TEAE: Intracranial tumor hemorrhage (Phase 2, 450 mg (N=48)): 1 (2.1) No. (%)
Serious TEAE: Liver injury (Phase 2, 450 mg (N=48)): 0 No. (%)
Serious TEAE: Lung adenocarcinoma (Phase 2, 450 mg (N=48)): 1 (2.1) No. (%)
Serious TEAE: Malignant neoplasm progression (Phase 2, 450 mg (N=48)): 1 (2.1) No. (%)
Serious TEAE: Multiple organ dysfunction syndrome (Phase 2, 450 mg (N=48)): 0 No. (%)
Serious TEAE: Nausea (Phase 2, 450 mg (N=48)): 0 No. (%)
Serious TEAE: Nephrolithiasis (Phase 2, 450 mg (N=48)): 1 (2.1) No. (%)
Serious TEAE: Platelet counts decreased (Phase 2, 450 mg (N=48)): 0 No. (%)
Serious TEAE: Pleural effusion (Phase 2, 450 mg (N=48)): 0 No. (%)
